Patent US12264356B2, “Method for determining sensitivity to SGLT2 inhibitor and sensitivity marker for SGLT2 inhibitor” (NIHON UNIVERSITY, priority 2019, dated 2025)

Test system: patients suffering from coronary artery disease complicated with type 2 diabetes
Test: Administration of SGLT2 inhibitor (50 mg Ipragliflozin) for 3 months; changes in individual indicators before and after administration
Format: in vivo, human
Conditions: for 1,5-AG after administration of SGLT2 inhibitor: P <0.001
Procedure: Thirty patients suffering from coronary artery disease complicated with type 2 diabetes (28 male patients and 2 female patients; average age: 70.5±8.1 years old) who did outpatient visit and could not sufficiently control their blood glucose level only by administration with an oral hypoglycemic agent were used as subjects. Patients whose casual urinary sugar was positive before administration of the agent were excluded from the subjects. The aforementioned patients were administered with the SGLT2 inhibitor (50 mg Ipragliflozin; 30 cases) alone or in combination with other oral hypoglycemic agents for 3 months. In the additional administration groups, the antidiabetic agents used in combination with the SGLT2 inhibitor were 10 cases of sulfonylurea drugs, 19 cases of DPP-4 inhibitors, 9 cases of thiazolidine drugs, and 4 cases of metformin. The average number of the combined agents was 2.4. During the observation period, the combined antidiabetic agents were not changed.
Before administration of the SGLT2 inhibitor and 3 months after the first administration, 1,5-AG, HbA1c, casual urinary sugar (U-Sugar), LDL cholesterol (LDL-C), hematocrit (Ht), NT-proBNP, and eGFR (estimated glomerular filtration rate) were measured, and changes in individual indicators before and after the administration were examined. Moreover, regarding cases in which the 1,5-AG value before administration of the SGLT2 inhibitor was less than 13 μg/mL (19 male patient cases), changes in individual indicators before and after the administration were examined.
1,5-AG was measured by an enzymatic method (the aforementioned Lana 1,5AG Auto Liquid, manufactured by Nippon Kayaku Co., Ltd.); HbA1c was measured by an HPLC method (manufactured by Tosoh Co., Ltd.); casual urinary sugar was measured by a test paper method (manufactured by Eiken Chemical Co., Ltd.); and LDL cholesterol was measured by an enzymatic method (manufactured by SEKISUI MEDICAL CO., LTD.) and NT-pro BNP was measured by an ELC-EIA method (manufactured by Roche Diagnostics K. K.).
In Table 5 and Table 6, the results are shown with mean±SD, and for statistical analyses, a paired t-test was applied, and p<0.05 was defined to be statistically significant.

Structure (SMILES): OC[C@H]1O[C@@H](c2ccc(F)c(Cc3cc4ccccc4s3)c2)[C@H](O)[C@@H](O)[C@@H]1O [Ipragliflozin]
- 1,5-AG after administration of SGLT2 inhibitor (19 male patients with 1,5-AG less than 13 μg/mL before administration, 50 mg, 3 months, mean ± SD, before 8.6 ± 2.9): 1.7 ± 0.8 µg/mL
- HbA1c after administration of SGLT2 inhibitor (19 male patients with 1,5-AG less than 13 μg/mL before administration, 3 months, before 7.2 ± 0.8, P = 0.13): 6.8 ± 0.6
- 1,5-AG after administration of SGLT2 inhibitor (30 patients, 50 mg, 3 months after first administration, mean ± SD, before administration 12.8 ± 6.7): 2.5 ± 2.0
- HbA1c after administration of SGLT2 inhibitor (30 patients, 50 mg, 3 months, mean ± SD, before 7.0 ± 0.8, P = 0.40): 7.2 ± 1.2
